# Results published in patent publication US20230416293A1, “SYNTHESIS OF [18F]-LABELED THYMIDINE ANALOGUES” (UNIVERSITY OF SOUTHERN CALIFORNIA, priority 2020, published 2023).
# Columns and labels:
# [1] = 1-octanol/PBS partition coefficient (Log P); format: physicochemical; settings: for Partition coefficients of 1-octanol/PBS: room temperature, PBS pH 7.4, quintuplicate
# [2] = test system: MDA-MB-231 tumor; experiment: microPET imaging of subcutaneous MDA-MB-231 tumor-bearing nude mice; format: in vivo; settings: MDA-MB-231 tumor model; for tumor uptake: intravenous, n=3
# Method: (§1) After the intravenous injection of [^18F]FMAU at 1 h and 2 h, the mice (n=3/group) were scanned through a microPET imaging system. […] For microPET scans, radioactivity accumulations in tumors and major tissues/organs were quantified by calculating the ROIs that comprised the entire organ on the coronal images.
# (§2) Tumor cells were cultured in Dulbecco's Modified Eagle Medium (DMEM) supplemented with 10% fetal bovine serum at 37° C. in a humidified incubator containing 5% CO2.
# (§3) Both MDA-MB-231 and U-87 MG tumor xenograft models (n=3/group) were generated by subcutaneous injection of 5×10^6 tumor cells into the front right flank of female athymic nude mice (4-6 weeks old) purchased from Envigo Inc., Indianapolis, IN. The tumors were permitted to grow 2-4 weeks until approximate 0.6-0.8 cm^3 in volume.
# (§4) MicroPET scans were carried out using a rodent scanner (Siemens Inveon microPET scanner, Siemens Medical Solutions). About 7.4 MBq (200 μCi) of [^18F]FMAU was injected through the tail vein under isoflurane anesthesia condition. Five-minute static scans were obtained at 60- and 120-min post-injection (p.i.). The 3D-OSEM algorithm was applied for image reconstruction. For each microPET scan, the regions of interest (ROIs) were drawn over tumor, muscle, liver, and kidneys on the decay-corrected whole-body coronal images. The tumor-to-muscle (T/M), tumor-to-liver (T/L), and tumor-to-kidney (T/K) ratios were then calculated.
# [3] = test system: U-87 MG tumor; experiment: microPET imaging of subcutaneous U-87 MG tumor-bearing nude mice; format: in vivo; settings: U-87 MG tumor model; for tumor uptake: intravenous, n=3
# Method: as §1, §2, §3, §4
# [4] = 1-octanol/PBS pH 7.4, room temperature, quintuplicate
compound,measurement,setting,value
"O=c1ccn([C@@H]2O[C@H](CO)[C@@H](O)[C@@H]2[18F])c(=O)[nH]1 [[^18F]FAU, 2′-Deoxy-2′-[^18F]fluoro-1-β-D-arabinofuranosyluracil]",Log P,[1]; [4],−0.943±0.041
same,Partition coefficients of 1-octanol/PBS,[1],0.114 ± 0.011
"O=c1[nH]c(=O)n([C@@H]2O[C@H](CO)[C@@H](O)[C@@H]2F)cc1Br [[^18F]FBAU, 1-(2-deoxy-2-fluoro-β-D-arabinofuranosyl)-5-bromouracil]",logP,[1]; [4],-0.367 ± 0.025
"O=c1[nH]c(=O)n([C@@H]2O[C@H](CO)[C@@H](O)[C@@H]2[18F])cc1Cl [[^18F]FCAU, 2′-deoxy-2′-[^18F]fluoro-5-chloro-1-β-D-arabinofuranosyluracil]",Log P,[1]; [4],−0.477±0.030
same,Partition coefficients of 1-octanol/PBS,[1],0.334 ± 0.022
"CCc1cn([C@@H]2O[C@H](CO)[C@@H](O)[C@@H]2[18F])c(=O)[nH]c1=O [[^18F]FEAU, 2′-deoxy-2′-[^18F]fluoro-5-ethyl-1-β-D-arabinofuranosyluracil]",Log P,[1]; [4],−0.077±0.018
same,Partition coefficients of 1-octanol/PBS,[1],0.837 ± 0.035
"O=c1[nH]c(=O)n([C@@H]2O[C@H](CO)[C@@H](O)[C@@H]2[18F])cc1F [[^18F]FFAU, 2′-deoxy-2′-[^18F]fluoro-5-fluoro-1-β-D-arabinofuranosyluracil]",Log P,[1]; [4],−0.952±0.023
same,Partition coefficients of 1-octanol/PBS,[1],0.113 ± 0.006
"O=c1[nH]c(=O)n([C@@H]2O[C@H](CO)[C@@H](O)[C@@H]2[18F])cc1I [[^18F]FIAU, 2′-deoxy-2′-[^18F]fluoro-5-iodo-1-β-D-arabinofuranosyluracil]",Log P,[1]; [4],−0.108±0.013
same,Partition coefficients of 1-octanol/PBS,[1],0.780 ± 0.024
"Cc1cn([C@@H]2O[C@H](CO)[C@@H](O)[C@@H]2[18F])c(=O)[nH]c1=O [[^18F]FMAU, 2′-Deoxy-2′-[^18F]fluoro-5-methyl-1-β-D-arabinofuranosyluracil]",Log P,[1]; [4],−0.577±0.003
same,Partition coefficients of 1-octanol/PBS,[1],0.265 ± 0.002
same,ratio of tumor uptake to kidney uptake (T/K),[2]; 1 h p.i.,1.9±0.5
same,ratio of tumor uptake to liver uptake (T/L),[2]; 1 h p.i.,2.1±0.2
same,ratio of tumor uptake to muscle uptake (T/M),[2]; 1 h p.i.,2.8±0.3
same,tumor uptake,[2]; 1 h p.i.,6.4±0.4 % ID/g
same,ratio of tumor uptake to kidney uptake (T/K),[2]; 2 h p.i.,1.9±0.5
same,ratio of tumor uptake to liver uptake (T/L),[2]; 2 h p.i.,2.5±0.2
same,ratio of tumor uptake to muscle uptake (T/M),[2]; 2 h p.i.,3.2±0.7
same,tumor uptake,[2]; 2 h p.i.,7.2±0.6 % ID/g
same,ratio of tumor uptake to kidney uptake (T/K),[3]; 1 h p.i.,1.4±0.2
same,ratio of tumor uptake to liver uptake (T/L),[3]; 1 h p.i.,1.4±0.3
same,ratio of tumor uptake to muscle uptake (T/M),[3]; 1 h p.i.,1.8±0.2
same,tumor uptake,[3]; 1 h p.i.,6.0±0.2 % ID/g
same,ratio of tumor uptake to kidney uptake (T/K),[3]; 2 h p.i.,1.3±0.1
same,ratio of tumor uptake to liver uptake (T/L),[3]; 2 h p.i.,1.5±0.3
same,ratio of tumor uptake to muscle uptake (T/M),[3]; 2 h p.i.,1.9±0.3
same,tumor uptake,[3]; 2 h p.i.,5.6±0.4 % ID/g
